Results on 20 compounds are retold here after patent US9493438B2, “4,4-difluoro-piperidine-compounds” (ROTTAPHARM BIOTECH S.R.L., priority 2012, dated 2016).

One experiment addresses T1, human OX2 receptors (Homo sapiens, UniProt O43614).
T1 construct: expressed in transfected cells; host or cells: HEK-293 cells
T1 sequence (O43614 1-444): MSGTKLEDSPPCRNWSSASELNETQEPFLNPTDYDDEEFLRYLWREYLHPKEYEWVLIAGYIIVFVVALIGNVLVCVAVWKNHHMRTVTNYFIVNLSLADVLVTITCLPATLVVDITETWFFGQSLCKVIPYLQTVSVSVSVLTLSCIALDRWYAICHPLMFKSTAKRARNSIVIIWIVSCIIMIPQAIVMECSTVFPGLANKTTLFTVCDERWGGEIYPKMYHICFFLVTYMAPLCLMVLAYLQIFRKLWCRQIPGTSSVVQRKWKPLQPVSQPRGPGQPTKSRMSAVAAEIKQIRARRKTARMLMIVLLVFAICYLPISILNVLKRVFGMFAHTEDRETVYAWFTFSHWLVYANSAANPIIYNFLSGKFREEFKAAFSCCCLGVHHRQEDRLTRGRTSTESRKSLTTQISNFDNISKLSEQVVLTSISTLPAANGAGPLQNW
Briefly: antagonistic activity against human OX2 receptor, [Ca2+]i fluorimetry in transfected HEK-293 cells. Type of experiment: cell-based. The conditions noted are these: read-out: PKb OX2 (converted). Here is the method:
(§1) Thus the plate was loaded with the calcium dye (Fluo-4NW/probenecid in HBSS, Hepes 20 mM, pH 7.4; Invitrogen) at 37° C. for 60 min. Afterward the temperature was equilibrated at 22° C. for 15 min and the [Ca2+]i measured directly on the plate by using a fluorescent plate reader (CeliLux Perkin Elmer).
(§2) Invention compounds were dissolved in DMSO, diluted in HBSS (DMSO, 0.3% final) and added to the wells. After 5 min CHO cells were activated with orexin-A, 3 nM while HEK-293 cells were activated with orexin-B, 10 nM. […] The antagonistic activity has been expressed as pKb (co-logarithm of the apparent dissociation constant calculated by using the modified Cheng Prusoff equation). The results are expressed as percent of control specific […] response ((measured specific response/control specific agonist response)×100) obtained in the presence of the test compounds.
(§3) The IC50 values (concentration causing a half-maximal inhibition of the control specific agonist response) were determinated by non-linear regression analysis of the concentration curves generated with mean replicate values using hill equation curve fitting. The IC50 values are obtained by the arithmetical mean of at least two experiments.

The target in the next experiment is T2, human OX1 receptors (Homo sapiens, UniProt O43613).
T2 construct: expressed in transfected cells; host or cells: CHO cells
T2 sequence (O43613 1-425): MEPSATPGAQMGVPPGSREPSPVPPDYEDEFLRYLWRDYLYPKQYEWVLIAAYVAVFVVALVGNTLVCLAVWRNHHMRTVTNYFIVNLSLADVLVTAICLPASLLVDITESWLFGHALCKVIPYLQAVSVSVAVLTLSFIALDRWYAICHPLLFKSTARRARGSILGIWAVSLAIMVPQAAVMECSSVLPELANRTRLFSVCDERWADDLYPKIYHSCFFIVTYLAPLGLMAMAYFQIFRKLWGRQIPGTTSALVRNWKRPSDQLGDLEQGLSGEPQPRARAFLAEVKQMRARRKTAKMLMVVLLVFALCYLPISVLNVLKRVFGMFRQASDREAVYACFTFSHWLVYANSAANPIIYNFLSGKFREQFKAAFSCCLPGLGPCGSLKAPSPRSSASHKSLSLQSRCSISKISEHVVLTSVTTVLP
In words: antagonistic activity against human OX1 receptor, [Ca2+]i fluorimetry in transfected CHO cells. Conditions: CHO cells transfected with human recombinant OX1; activated with orexin-A 3 nM; pKb = co-logarithm of apparent dissociation constant (modified Cheng Prusoff). The class given is cell-based. As for the experimental part:
as §1, §2, §3

Each structure is given as a SMILES string.

As to `Cc1ccc(-c2ncccn2)c(C(=O)N2CCC(F)(F)CC2CNc2ncc(C(F)(F)F)cc2F)n1` (racemic) [Compound 31, (RS)(4,4-difluoro-2-(((3-fluoro-5-(trifluoromethyl)pyridin-2-yl)amino)methyl)piperidin-1-yl)(6-methyl-3-(pyrimidin-2-yl)pyridin-2-yl)methanone], the Kb at human OX2 receptors was 10000 nM; on human OX1 receptors, 3.98 nM.
For `Cc1ccc(-c2ccccn2)c(C(=O)N2CCC(F)(F)CC2CNc2ccc(C(F)(F)F)cn2)n1` (racemic) [Compound 53, (RS)(4,4-difluoro-2-(((5-(trifluoromethyl)pyridin-2-yl)amino)methyl)piperidin-1-yl)(6′-methyl-[2,3′-bipyridin]-2′-yl)methanone] the same measures were 10000 nM and 15.8 nM.
For `COc1ccc(OC)c(C(=O)N2CCC(F)(F)CC2CNc2ccc(Cl)cn2)c1` (racemic) [Compound 11, (RS)(2-(((5-chloropyridin-2-yl)amino)methyl)-4,4-difluoropiperidin-1-yl)(2,5-dimethoxyphenyl)methanone], in that order: 10000 nM and 7.94 nM.
For `O=C(c1nccc2ccccc12)N1CCC(F)(F)CC1CNc1ccc(C(F)(F)F)cn1` (single isomer, unassigned; isomer a) [Compound 41, (4,4-difluoro-2-(((5-(trifluoromethyl)pyridin-2-yl)amino)methyl)piperidin-1-yl)(isoquinolin-1-yl)methanone (isomer A)] the same measures were 10000 nM and 1.58 nM.
Regarding `Cc1ccc(-c2ncccn2)c(C(=O)N2CCC(F)(F)CC2CNc2ccc(Cl)cn2)n1` (single isomer, unassigned; isomer a) [Compound 16, (2-(((5-chloropyridin-2-yl)amino)methyl)-4,4-difluoropiperidin-1-yl)(6-methyl-3-(pyrimidin-2-yl)pyridin-2-yl)methanone (isomer A)], the Kb was 10000 nM at human OX2 receptors and 0.631 nM at human OX1 receptors.
For `O=C(c1cccc2cccnc12)N1CCC(F)(F)CC1CNc1ccc(Cl)cn1` (racemic) [Compound 25, (RS)(2-(((5-chloropyridin-2-yl)amino)methyl)-4,4-difluoropiperidin-1-yl)(quinolin-8-yl)methanone] the same measures were 10000 nM and 0.794 nM.
For `Cc1ccc(OCc2ccccc2)c(C(=O)N2CCC(F)(F)CC2CNc2ccc(C(F)(F)F)cn2)n1` (racemic) [Compound 47, (RS)(3-(benzyloxy)-6-methylpyridin-2-yl)(4,4-difluoro-2-(((5-(trifluoromethyl)pyridin-2-yl)amino)methyl)piperidin-1-yl)methanone], in that order: 10000 nM and 12.6 nM.
For `Cc1ccc(OCC2CC2)c(C(=O)N2CCC(F)(F)CC2CNc2ccc(C(F)(F)F)cn2)n1` (racemic) [Compound 45, (RS)(3-(cyclopropylmethoxy)-6-methylpyridin-2-yl)(4,4-difluoro-2-(((5-(trifluoromethyl)pyridin-2-yl)amino)methyl)piperidin-1-yl)methanone], in that order: 10000 nM and 3.98 nM.
As for `N#Cc1ccc(-c2ncccn2)c(C(=O)N2CCC(F)(F)CC2CNc2ccc(Cl)cn2)c1` (racemic) [Compound 27, (RS)3-(2-(((5-chloropyridin-2-yl)amino)methyl)-4,4-difluoropiperidin-1-carbonyl)-4-(pyrimidin-2-yl)benzonitrile], the Kb at human OX2 receptors is 10000 nM; at human OX1 receptors, 1.58 nM.
For `O=C(c1nccc2ccccc12)N1CCC(F)(F)CC1CNc1ccc(Cl)cn1` (single isomer, unassigned; isomer b) [Compound 24, (2-(((5-chloropyridin-2-yl)amino)methyl)-4,4-difluoropiperidin-1-yl)(isoquinolin-1-yl)methanone (isomer B)], in that order: 10000 nM and 1 nM.
For `Cc1ccc(-n2nccn2)c(C(=O)N2CCC(F)(F)CC2CNc2nc(C)cc(C)n2)c1` (single isomer, unassigned; isomer a) [Compound 4, (2-(((4,6-dimethylpyrimidin-2-yl)amino)methyl)-4,4-difluoropiperidin-1-yl)(5-methyl-2-(2H-1,2,3-triazol-2-yl)phenyl)methanone (isomer A)], in that order: 200 nM and 2.51 nM.
For `Cc1ccc(-c2ncccn2)c(C(=O)N2CCC(F)(F)CC2CNc2ccc(C(F)(F)F)cn2)n1` (single isomer, unassigned; isomer a) [Compound 20, (4,4-difluoro-2-(((5-(trifluoromethyl)pyridin-2-yl)amino)methyl)piperidin-1-yl)(6-methyl-3-(pyrimidin-2-yl)pyridin-2-yl)methanone (isomer A)], in that order: 316 nM and 0.794 nM.
For `O=C(c1ncccc1-c1ncccn1)N1CCC(F)(F)CC1CNc1ccc(C(F)(F)F)cn1` (racemic) [Compound 54, (RS) (4,4-difluoro-2-(((5-(trifluoromethyl)pyridin-2-yl)amino)methyl)piperidin-1-yl)(3-(pyrimidin-2-yl)pyridin-2-yl)methanone], on human OX1 receptors, the Kb is 3.16 nM.
Same read-out and setting: then `O=C(c1ccnc2ccccc12)N1CCC(F)(F)CC1CNc1ccc(C(F)(F)F)cn1` (racemic) [Compound 35], with 31.6 nM.
The same measure, in the same setting: then `O=C(c1ccncc1-c1ncccn1)N1CCC(F)(F)CC1CNc1ccc(Cl)cn1` (racemic) [Compound 28, (RS)(2-(((5-chloropyridin-2-yl)amino)methyl)-4,4-difluoropiperidin-1-yl)(3-(pyrimidin-2-yl)pyridin-4-yl)methanone], with 15.8 nM; and `O=C(c1ccccc1OCc1ccccc1)N1CCC(F)(F)CC1CNc1ccc(Cl)cn1` (racemic) [Compound 21, (RS)(2-(benzyloxy)phenyl)(2-(((5-chloropyridin-2-yl)amino)methyl)-4,4-difluoropiperidin-1-yl)methanone], with 5.01 nM.
On the same count and under the same terms, the same measure for `O=C(c1nccc2ccccc12)N1CCC(F)(F)CC1CNc1ccc(C(F)(F)F)cn1` (racemic) [Compound 34, (RS)(4,4-difluoro-2-(((5-(trifluoromethyl)pyridin-2-yl)amino)methyl)piperidin-1-yl)(isoquinolin-1-yl)methanone]: 2.51 nM; for `Cc1ccc(-n2nccn2)c(C(=O)N2CCC(F)(F)CC2CNc2ccc(C(F)(F)F)cn2)c1` (racemic) [Compound 5, (RS)(4,4-difluoro-2-(((5-(trifluoromethyl)pyridin-2-yl)amino)methyl)piperidin-1-yl)(5-methyl-2-(2H-1,2,3-triazol-2-yl)phenyl)methanone]: 5.01 nM; for `Cc1cnc(-c2ncccn2)c(C(=O)N2CCC(F)(F)CC2CNc2ccc(Cl)cn2)c1` (racemic) [Compound 15, (RS)(2-(((5-chloropyridin-2-yl)amino)methyl)-4,4-difluoropiperidin-1-yl)(5-methyl-2-(pyrimidin-2-yl)pyridin-3-yl)methanone]: 126 nM.
As for `O=C(c1ccccc1OCC1CC1)N1CCC(F)(F)CC1CNc1ccc(Cl)cn1` (racemic) [Compound 12, (RS)(2-(((5-chloropyridin-2-yl)amino)methyl)-4,4-difluoropiperidin-1-yl)(2-(cyclopropylmethoxy)phenyl)methanone], the Kb at human OX1 receptors was 2 nM.
